# Assay results reported in ChEMBL document CHEMBL1201862, “PubChem BioAssay data set” (2004).
#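 Results reflect a 48-hour exposure of cells in 96-well plates to compound at five concentrations. GI50 is the concentration that inhibits growth by half.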 The source made the active and inactive calls. Rule as the data show it: active = GI50 up to about 1.1 µM and inactive = higher.
# Legend:
# Assay in all cases: NCI anticancer screen, dose series, 48 h
# DMS-114 = test system: DMS-114
# DMS-273 = test system: DMS-273
# HOP-18 = test system: HOP-18
# KM-20L2 = test system: KM-20L2
# LXFL 529 = test system: LXFL 529
# SNB-78 = test system: SNB-78
# XF498 = test system: XF498
# M19-MEL = test system: M19-MEL
# RXF 631 = test system: RXF 631
SMILES,GI50 (DMS-114),GI50 (DMS-273),GI50 (HOP-18),GI50 (KM-20L2),GI50 (LXFL 529),GI50 (SNB-78),GI50 (XF498),GI50 (M19-MEL),GI50 (RXF 631)
CC1/C=C/[C@@]2(C)CCC(C(C)(C)O)C2C(O)C[C@](C)(O)/C=C/C1 (some centres not stated),> 100 µM (inactive),> 100 µM (inactive),> 100 µM (inactive),> 100 µM (inactive),> 100 µM (inactive),> 100 µM (inactive),> 100 µM (inactive),,
CCOC(=O)C1C(=O)c2cccc(OC)c2C2COC(=O)N12 (configuration not stated),> 100 µM (inactive),> 100 µM (inactive),> 100 µM (inactive),> 100 µM (inactive),> 100 µM (inactive),,> 100 µM (inactive),> 100 µM (inactive),> 100 µM (inactive)
Cc1ccc(NC(=O)C(=O)C(C(=O)/C=C/c2ccccc2)C2OC(=O)c3ccccc32)c(C)c1 (configuration not stated),> 100 µM (inactive),,,> 100 µM (inactive),> 100 µM (inactive),> 100 µM (inactive),> 100 µM (inactive),> 100 µM (inactive),> 100 µM (inactive)
COc1ccc2oc(-c3ccc(OC)c(OC)c3OC)cc(=O)c2c1,31.8 µM (inactive),,,24 µM (inactive),39.4 µM (inactive),,39.7 µM (inactive),57 µM (inactive),
CCOc1ccccc1NC(=O)C(=O)C(C(=O)c1ccc2ccccc2c1)C1OC(=O)c2ccccc21 (configuration not stated),9.62 µM (inactive),12.3 µM (inactive),16.6 µM (inactive),28.3 µM (inactive),5.21 µM (inactive),11.6 µM (inactive),,,6.18 µM (inactive)
COc1ccc2c(c1)C1C(CO2)C(c2ccccc2)=NN1c1ccccc1 (configuration not stated),> 100 µM (inactive),> 100 µM (inactive),> 100 µM (inactive),> 100 µM (inactive),> 100 µM (inactive),> 100 µM (inactive),> 100 µM (inactive),> 100 µM (inactive),> 100 µM (inactive)
O=C1N=C2Sc3ccc4ccccc4c3N2C1=O,39.7 µM (inactive),22.8 µM (inactive),15 µM (inactive),25.4 µM (inactive),18.7 µM (inactive),26.4 µM (inactive),19.2 µM (inactive),36.1 µM (inactive),20.8 µM (inactive)
COC1C(O)C(C)OC(OC2C(Oc3cccc4c(O)c5c(=O)oc6ccc(C)c7c(=O)oc(c34)c5c67)OC(C)C(O)C2O)C1O (configuration not stated),0.918 µM (active),2.1 µM (inactive),2.45 µM (inactive),2.52 µM (inactive),,2 µM (inactive),0.824 µM (active),1.04 µM (active),
CC1=CCN(c2ccccn2)OC1c1ccccc1 (configuration not stated),> 100 µM (inactive),> 100 µM (inactive),> 100 µM (inactive),> 100 µM (inactive),> 100 µM (inactive),> 100 µM (inactive),> 100 µM (inactive),> 100 µM (inactive),> 100 µM (inactive)
C=C(Br)C(C)(Br)CCC(Br)C(C)(C)Br (configuration not stated),17.2 µM (inactive),19.2 µM (inactive),> 100 µM (inactive),,20.5 µM (inactive),26.2 µM (inactive),,17 µM (inactive),
COc1ccccc1OCC(COC(=O)Nc1ccc(C)cc1)OC(=O)Nc1ccc(C)cc1 (configuration not stated),14.7 µM (inactive),16.7 µM (inactive),18.4 µM (inactive),23.1 µM (inactive),27.1 µM (inactive),26.7 µM (inactive),,,19.4 µM (inactive)
C[N+](C)(C)CC(=O)N/N=C(/Cc1nc2ccc(Cl)cc2nc1O)C1=NS(=O)(=O)c2cc(S(N)(=O)=O)c(Cl)cc2N1,> 100 µM (inactive),,,> 100 µM (inactive),,,,> 100 µM (inactive),
O=c1[nH]nc(-c2ccccc2)c(-c2ccccc2)c1-n1nc(-c2ccccc2)c2ccccc2c1=O,,89.5 µM (inactive),> 100 µM (inactive),,46.8 µM (inactive),> 100 µM (inactive),,> 100 µM (inactive),
O=C(Nc1nnc(S)[nH]1)C(=O)C1C(=O)Nc2ccccc2[S+]1[O-] (configuration not stated),> 100 µM (inactive),> 100 µM (inactive),> 100 µM (inactive),> 100 µM (inactive),> 100 µM (inactive),,,> 100 µM (inactive),> 100 µM (inactive)
O=C1OC2C=CC1C1(CCOC1=O)C2 (configuration not stated),> 100 µM (inactive),> 100 µM (inactive),> 100 µM (inactive),> 100 µM (inactive),> 100 µM (inactive),,> 100 µM (inactive),> 100 µM (inactive),
c1ccc(SC(CCCCC(Sc2ccccc2)Sc2ccccc2)Sc2ccccc2)cc1,> 100 µM (inactive),> 100 µM (inactive),,> 100 µM (inactive),> 100 µM (inactive),> 100 µM (inactive),> 100 µM (inactive),> 100 µM (inactive),> 100 µM (inactive)
N=C1SCCS1,> 100 µM (inactive),,,> 100 µM (inactive),> 100 µM (inactive),> 100 µM (inactive),> 100 µM (inactive),> 100 µM (inactive),
O=[N+]([O-])c1ccc(C2CC(c3ccccc3Cl)=Nc3ccccc3S2)cc1 (configuration not stated),2.19 µM (inactive),4.71 µM (inactive),3.3 µM (inactive),4.74 µM (inactive),2.84 µM (inactive),16.1 µM (inactive),7.13 µM (inactive),10.5 µM (inactive),5.74 µM (inactive)
COC(=O)/C(=N\N)C(C(=O)C(=O)Nc1nnc(S)[nH]1)c1nc2ccc([N+](=O)[O-])cc2nc1O (configuration not stated),> 100 µM (inactive),> 100 µM (inactive),> 100 µM (inactive),> 100 µM (inactive),> 100 µM (inactive),> 100 µM (inactive),,> 100 µM (inactive),> 100 µM (inactive)
COc1ccccc1/C=C(\NC(=O)c1ccccc1)c1nc2ccc(Cl)cc2[nH]1,17.2 µM (inactive),37.1 µM (inactive),26.2 µM (inactive),48.8 µM (inactive),21.1 µM (inactive),38.9 µM (inactive),34.4 µM (inactive),32.9 µM (inactive),
CO[C@@H]1C=C[C@@]23c4cc5c(cc4C(=O)O[C@H]2CN(C)[C@H]3C1)OCO5,> 100 µM (inactive),> 100 µM (inactive),> 100 µM (inactive),> 100 µM (inactive),> 100 µM (inactive),> 100 µM (inactive),> 100 µM (inactive),> 100 µM (inactive),
O=C(N/N=C(/c1nc2ccc([N+](=O)[O-])cc2[nH]c1=O)C(O)c1ccc([N+](=O)[O-])cc1)c1ccncc1 (configuration not stated),13.4 µM (inactive),,> 100 µM (inactive),,53.1 µM (inactive),> 100 µM (inactive),> 100 µM (inactive),> 100 µM (inactive),
CC1(C(=O)O)CCC[C@@]2(C)C1CC[C@@]1(C)c3cocc3CCC21 (some centres not stated),> 100 µM (inactive),> 100 µM (inactive),> 100 µM (inactive),> 100 µM (inactive),> 100 µM (inactive),> 100 µM (inactive),> 100 µM (inactive),> 100 µM (inactive),> 100 µM (inactive)
CCCCCCCCCCCCCC(=O)OCC1OC(OC)C(NC(=O)N(CCCl)N=O)C(O)C1O (configuration not stated),18.5 µM (inactive),12.9 µM (inactive),> 100 µM (inactive),21 µM (inactive),16.3 µM (inactive),25.5 µM (inactive),15.9 µM (inactive),,20.9 µM (inactive)
[O-][n+]1c2cc(CBr)c(CBr)cc2[n+]([O-])c2c(O)cccc21,1.69 µM (inactive),1.68 µM (inactive),2.39 µM (inactive),3.07 µM (inactive),1.56 µM (inactive),1.94 µM (inactive),2.35 µM (inactive),1.73 µM (inactive),3.15 µM (inactive)
O=C(Nc1cccc([N+](=O)[O-])c1)/C(=N\NC(=O)c1ccncc1)c1nc2ccc([N+](=O)[O-])cc2nc1O,13.9 µM (inactive),,,,35.6 µM (inactive),> 100 µM (inactive),,,
NC(CSC(c1ccccc1)(c1ccccc1)c1ccccc1)C(=O)O (configuration not stated),,0.235 µM (active),4.14 µM (inactive),1.82 µM (inactive),7.76 µM (inactive),2.61 µM (inactive),,3.19 µM (inactive),
O=S(=O)(c1ccccc1)C1CN(Cc2ccccc2)CCN(Cc2ccccc2)C1,10 µM (inactive),12.7 µM (inactive),,35.2 µM (inactive),11.3 µM (inactive),,18.8 µM (inactive),14.4 µM (inactive),
